From patent US8324245B2, “Quinoline derivative and quinazoline derivative inhibiting self-phosphorylation of hepatocytus proliferator receptor, and medicinal composition containing the same” (Kyowa Hakko Kirin Co., Ltd., priority 2001, dated 2012)

Tests used:
[1] = molecular target: T1, met (HGF receptor) in human epidermal cancer cells A431 (Homo sapiens, UniProt P08581); test: Inhibitory activity against met-autophosphorylation using ELISA method (1), HGF-stimulated A431 cells; assay type: cell-based; conditions: HGF 50 ng/ml stimulation, read-out: IC50 (concentration necessary for inhibiting 50% of met phosphorylation)
T1 construct: endogenous in cells; host or cells: A431 human epidermal cancer cells
Experimental: Human epidermal cancer cells A431 were cultured in an RPMI 1640 medium containing 10% fetal calf serum (purchased from GIBCO BRL) within a 5% carbon dioxide incubator until 50 to 90% confluent. Cells were cultured with RPMI medium containing 0.1% fetal calf serum in 96-well flat-bottom plate in an amount of 3×10^4 per well, and were incubated at 37° C. overnight. The medium was then replaced by a fresh RPMI medium containing 0.1% fetal calf serum. A solution of the test compound in dimethyl sulfoxide was added to each well, and the cells were incubated at 37° C. for additional one hr. A human recombinant hepatocyte growth factor (hereinafter abbreviated to “HGF”) was added to a final concentration of 50 ng/ml, and the stimulation of cells was carried out at 37° C. for 5 min. The medium was removed, the cells were washed with phosphate buffered saline (pH 7.4), and 50 μl of lysis buffer (20 mM HEPES (pH 7.4), 150 mM NaCl, 0.2% Triton X-100, 10% glycerol, 5 mM sodium orthovanadylate, 5 mM disodium ethylenediaminetetraacetate, and 2 mM Na4P2O7) was then added thereto. […]
Separately, phosphate buffered saline (50 μl, pH 7.4) containing 5 μg/ml of anti-phospho-tyrosine antibody (PY20; purchased from Transduction Laboratories) was added to a microplate for ELISA (Maxisorp; purchased from NUNC), followed by gentle agitation at 4° C. overnight to coat the surface of the wells with the antibody. […] After washing, the whole quantity of the cell extract was transferred to the wells, and the plate was then allowed to incubate at 4° C. overnight. […] After a suitable level of color development, a reaction termination solution was added to stop the reaction, and the absorbance at 450 nm was measured with a microplate reader. The met-phosphorylation inhibitory activity for each well was determined by presuming the absorbance with the addition of HGF and the vehicle to compounds to be 0% met-phosphorylation inhibitory activity and the absorbance with the addition of the vehicle to compounds and without HGF to be 100% met phosphorylation inhibitory activity. […]

[2] = molecular target: T2, met (HGF receptor) in human gastric cancer cells MKN45 (Homo sapiens, UniProt P08581); test: Inhibitory activity against met-autophosphorylation using ELISA method (2), MKN45 cells, HGF-independent; assay type: cell-based
T2 construct: endogenous in cells; host or cells: MKN45 human gastric cancer cells
Summary of the method: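 Met autophosphorylation was read by sandwich ELISA: phosphotyrosine capture (PY20), anti-HGF receptor detection, peroxidase read-out at 450 nm. Lysates came from MKN45 gastric cancer cells kept in 0.1% FCS RPMI and treated 1 h at 37 °C with test compound, with no added HGF.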

[3] = test system: Human gastric cancer cells (MKN 45); test: Tumor growth inhibitory activity against human gastric cancer cells (MKN 45) in nude mice; assay type: in vivo; conditions: oral, twice a day for 5 days
Experimental: Human gastric cancer cells (MKN 45) were transplanted into nude mice. […] The test compound suspended in 0.5% methylcellulose was orally administered twice a day for 5 days.
(§1) Only 0.5% methylcellulose was administered to the control group in the manner as in the test groups. The tumor growth inhibition rate (TGIR) was calculated as follows: The tumor growth inhibition rate (TGIR)=(1−TX/CX)×100 wherein CX represents the relative tumor volume at day X for the control group when the tumor volume at the day of the start of the administration was presumed to be 1; and TX represents the relative tumor volume for test compound administration groups.

[4] = test system: Human brain tumor cells (U87MG); test: Tumor growth inhibitory activity against human brain tumor cells (U87MG) in nude mice; assay type: in vivo; conditions: oral, twice a day for 5 days
Experimental: Human brain tumor cells (U87MG) were transplanted into nude mice. […] The test compound suspended in 0.5% methylcellulose was orally administered twice a day for 5 days.
as §1

[5] = test system: human pancreatic cancer cells (KP4); test: Tumor growth inhibitory activity against various human tumor cells in nude mice: KP4; assay type: in vivo; conditions: KP-4, Oral, 5 days
Experimental: (§2) Human gastric cancer cells (MKN 45) (obtained from RIKEN), human brain tumor cells (U87MG) (obtained from ATCC), human pancreatic cancer cells (KP4) (obtained from RIKEN), human pancreatic cancer cells (SUIT-2) (obtained from National Kyushu Cancer Center), and human signet-ring type gastric cancer cells (NUGC-4) (obtained from RIKEN), or human lung cancer cells (LC6) (obtained from Central Laboratories for Experimental Animals) were transplanted into nude mice. […] The test compound suspended in 0.5% methylcellulose was orally administered once or twice a day for 5 days. Only 0.5% methylcellulose was administered to the control group in the manner as in the test groups. Alternatively, the test compound dissolved in physiological saline (with a 1 N aqueous hydrochloric acid solution added thereto) was intraveneously injected once a day for 5 days, and only physiological saline (with a 1 N aqueous hydrochloric acid solution added thereto) was administered to the control group in the same manner as in the test groups. The tumor growth inhibition rate (TGIR) was calculated as follows: The tumor growth inhibition rate (TGIR)=(1−TX/CX)×100 wherein CX represents the relative tumor volume at the 5th day for the control group when the tumor volume at the day of the start of the administration was presumed to be 1; and TX represents the relative tumor volume for test compound administration groups.

[6] = test system: human signet-ring type gastric cancer cells (NUGC-4); test: Tumor growth inhibitory activity against various human tumor cells in nude mice: NUGC-4; assay type: in vivo; conditions: NUGC-4, Oral, 30 × 2 mg/kg × number of times, 5 days
Experimental: as §2, with “Alternatively, the test compound dissolved in physiological saline (with a 1 N aqueous hydrochloric acid solution added thereto) was intraveneously injected once a day for 5 days, and only physiological saline (with a 1 N aqueous hydrochloric acid solution added thereto) was administered to the control group in the same manner as in the test groups.” left out

[7] = test system: human lung cancer cells (LC6); test: Tumor growth inhibitory activity against various human tumor cells in nude mice: LC6; assay type: in vivo; conditions: LC6, Oral, 30 × 2 mg/kg × number of times, 5 days
Experimental: as §2

[8] = test system: human pancreatic cancer cells (SUIT-2); test: Tumor growth inhibitory activity against various human tumor cells in nude mice: SUIT-2; assay type: in vivo; conditions: SUIT-2, Oral, 25 × 1 mg/kg × number of times, 5 days
Experimental: as §2, with “Alternatively, the test compound dissolved in physiological saline (with a 1 N aqueous hydrochloric acid solution added thereto) was intraveneously injected once a day for 5 days, and only physiological saline (with a 1 N aqueous hydrochloric acid solution added thereto) was administered to the control group in the same manner as in the test groups.” left out

T2 sequence (P08581 25-1390): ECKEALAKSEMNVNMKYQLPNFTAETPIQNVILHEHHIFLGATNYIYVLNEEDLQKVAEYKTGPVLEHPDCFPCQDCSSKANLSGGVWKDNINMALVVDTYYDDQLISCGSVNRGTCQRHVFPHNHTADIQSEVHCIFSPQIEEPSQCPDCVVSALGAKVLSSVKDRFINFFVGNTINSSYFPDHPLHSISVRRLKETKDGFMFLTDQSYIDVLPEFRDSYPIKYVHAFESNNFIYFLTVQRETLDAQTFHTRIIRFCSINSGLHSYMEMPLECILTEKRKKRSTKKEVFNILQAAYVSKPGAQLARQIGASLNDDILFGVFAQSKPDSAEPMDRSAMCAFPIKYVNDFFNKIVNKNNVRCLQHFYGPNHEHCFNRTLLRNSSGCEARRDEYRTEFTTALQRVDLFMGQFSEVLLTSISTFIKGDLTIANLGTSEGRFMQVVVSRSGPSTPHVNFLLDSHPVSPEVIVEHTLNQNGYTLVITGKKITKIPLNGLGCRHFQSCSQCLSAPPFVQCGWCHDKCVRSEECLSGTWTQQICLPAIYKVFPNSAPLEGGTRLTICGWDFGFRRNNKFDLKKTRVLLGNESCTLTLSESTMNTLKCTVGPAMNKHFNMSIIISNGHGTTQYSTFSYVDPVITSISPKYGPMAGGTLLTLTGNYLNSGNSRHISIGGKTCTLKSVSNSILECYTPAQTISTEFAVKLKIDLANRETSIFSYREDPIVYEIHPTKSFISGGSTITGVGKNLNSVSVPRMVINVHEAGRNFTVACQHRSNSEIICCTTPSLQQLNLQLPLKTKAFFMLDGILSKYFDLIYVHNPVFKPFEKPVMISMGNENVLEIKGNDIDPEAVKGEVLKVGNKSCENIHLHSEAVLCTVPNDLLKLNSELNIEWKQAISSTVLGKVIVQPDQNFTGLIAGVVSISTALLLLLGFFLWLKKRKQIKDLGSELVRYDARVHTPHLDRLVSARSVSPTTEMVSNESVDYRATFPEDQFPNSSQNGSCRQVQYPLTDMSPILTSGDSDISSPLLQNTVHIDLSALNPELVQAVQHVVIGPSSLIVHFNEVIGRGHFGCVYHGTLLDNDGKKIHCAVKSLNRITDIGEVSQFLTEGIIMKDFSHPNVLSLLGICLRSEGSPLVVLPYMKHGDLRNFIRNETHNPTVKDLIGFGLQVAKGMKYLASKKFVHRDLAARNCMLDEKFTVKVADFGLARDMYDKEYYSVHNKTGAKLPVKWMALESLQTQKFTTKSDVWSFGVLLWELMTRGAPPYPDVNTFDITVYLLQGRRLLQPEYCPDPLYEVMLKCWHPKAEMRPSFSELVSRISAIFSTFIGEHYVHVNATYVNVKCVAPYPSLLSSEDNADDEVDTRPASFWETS
T1 sequence (P08581 25-1390): as above

Compound | IC50 [1] | IC50 [2] | TGIR (tumor growth inhibition rate) ([3]; dose 10 mg/kg/time) | TGIR (tumor growth inhibition rate) ([3]; dose 30 mg/kg/time) | TGIR ([4]; 10 mg/kg/time) | TGIR ([4]; 30 mg/kg/time) | TGIR ([5]; 30 × 2 mg/kg × number of times) | TGIR [6] | TGIR [7] | TGIR ([4]; 100 mg/kg/time) | TGIR ([5]; 12.5 × 1 mg/kg × number of times) | TGIR ([5]; 25 × 1 mg/kg × number of times) | TGIR ([5]; 50 × 1 mg/kg × number of times) | TGIR [8]
COc1cc2nccc(Oc3ccc(NC(=S)NC(=O)Cc4ccc(F)cc4)cc3F)c2cc1OC [Example 2, N-[4-(6,7-dimethoxyquinolin-4-yloxy)-3-fluoro-phenyl]-N′-[2-(4-fluorophenyl)acetyl]thiourea] | 11.8 nM | 18.1 nM | 31% | 65% | 38% | 61% | 54% | 75% | 27% | – | – | – | – | –
COc1cc2nccc(Oc3ccc(NC(=O)NC(=O)Cc4ccc(F)cc4)c(F)c3)c2cc1OC [Example 3, N-[4-(6,7-dimethoxyquinolin-4-yloxy)-2-fluoro-phenyl]-N′-[2-(4-fluorophenyl)acetyl]urea] | 19.7 nM | 30.4 nM | 24% | 52% | – | 51% | 31% | 71% | 18% | 60% | – | – | – | –
COc1cc2c(Oc3ccc(NC(=S)NC(=O)Cc4ccc(F)cc4)cc3F)ccnc2cc1OCC(O)CN1CCOCC1 (centres unmarked) [Example 313, 1-{3-Fluoro-4-[7-(2-hydroxy-3-morpholin-4-yl-propoxy)-6-methoxy-quinolin-4-yloxy]-phenyl}-3-[2-(4-fluorophenyl)-acetyl]-thiourea] | – | 21.1 nM | – | – | – | – | – | – | – | – | 34% | 45% | 48% | 28%
